Measurements reported in US10077241B2 (Janssen Pharmaceutica NV, priority 2014, dated 2018).

Columns and labels:
[1] = molecular target: T1, TGR5 (NCI-H716 cell line) (Homo sapiens, UniProt Q8TDU6); assay: NCI-H716 cAMP Agonist EC50 Determination
T1 sequence (Q8TDU6 1-330): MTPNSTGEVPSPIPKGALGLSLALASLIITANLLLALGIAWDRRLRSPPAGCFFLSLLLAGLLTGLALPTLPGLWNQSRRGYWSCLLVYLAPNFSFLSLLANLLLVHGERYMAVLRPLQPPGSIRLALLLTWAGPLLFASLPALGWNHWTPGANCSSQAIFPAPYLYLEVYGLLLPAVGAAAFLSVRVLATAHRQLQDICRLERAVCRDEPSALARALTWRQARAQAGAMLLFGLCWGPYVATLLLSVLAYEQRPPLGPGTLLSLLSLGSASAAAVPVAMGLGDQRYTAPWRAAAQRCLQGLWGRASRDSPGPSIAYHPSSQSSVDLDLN

TGR5 (STC1 cell line) = molecular target: T2, TGR5 (STC1 cell line) (Mus musculus, UniProt Q80SS6); assay: STC1 cAMP Agonist EC50 Determination
T2 sequence (Q80SS6 1-329): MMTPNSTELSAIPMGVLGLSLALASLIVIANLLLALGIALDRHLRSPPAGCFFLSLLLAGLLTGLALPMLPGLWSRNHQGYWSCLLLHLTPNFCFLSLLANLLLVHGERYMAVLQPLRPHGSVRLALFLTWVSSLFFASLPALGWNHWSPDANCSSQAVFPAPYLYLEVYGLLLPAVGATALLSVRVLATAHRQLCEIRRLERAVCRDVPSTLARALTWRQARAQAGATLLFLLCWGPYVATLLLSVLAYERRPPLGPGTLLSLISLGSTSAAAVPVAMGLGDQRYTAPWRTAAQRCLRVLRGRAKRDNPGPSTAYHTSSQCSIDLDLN
Experimental: Cell stocks were maintained and grown in a sub-confluent state using standard cell culture procedures. The day before the experiment, the cells were harvested with non-enzymatic cell dissociation buffer and resuspended in complete growth media at 4E5 c/ml. […] The seeded plates were incubated overnight at 37° C.
On the day of the experiment, Assay Buffer containing: HBSS with Ca^2+and Mg^2+; 5 μM HEPES; 0.1% BSA; and, 0.5 μM IBMX was prepared. The growth medium was washed from the cell plates and replaced with 20 μL of Assay Buffer. […] The reaction was stopped by the addition of 20 μL 0.1% Formic Acid to all wells. Sixty minutes later 30 μL 3 M deuterated AMP was added to all wells (as a control for volume addition to the mass spec). Plates were mixed on a plate shaker for 1 min and centrifugated (5 min 3000 RPMs no brakes).
Plates were run on a 4000 QTrap triple-quadrapole Mass spectrometer in positive ion mode coupled with a Biocius RapidFire 300is. […] Two ions (cAMP and deuterated AMP were measured using Multiple Reaction Monitoring (MRM) in positive ion mode and the area under the curve (AUC) was determined for each of the ions.
The data from the Mass Spec/Rapid Plate AUC for cAMP and deuterated AMP were imported to an Excel worksheet. A Normalized signal (NS) was generated for each well=(cAMP AUC for the well/deut AMP AUC for the well)*average deut AMP AUC for the plate). nM cAMP was calculated for each well from the cAMP standard curves located on each plate by first calculating the slope and deriving the intercept (b).
EC50 values were determined from a 4-point fit (Hill equation) of a single 11-point compound dosing.

| SMILES | EC50 [1] | EC50 (TGR5 (STC1 cell line)) |
| --- | --- | --- |
| COc1cc(C2CCCc3nc(SCc4c(Br)cncc4Br)n(-c4ccc(F)cc4)c32)ccc1Cl (stereo not drawn) [Example 60, 2-((3,5-dibromopyridin-4-yl)methylthio)-7-(4-chloro-3-methoxyphenyl)-1-(4-fluorophenyl)-4,5,6,7-tetrahydro-1H-benzo[d]imidazole] | > 50 µM | 15.5 µM |
| COc1cc(C2CC(C)Cc3nc(SCc4c(F)cccc4Cl)n(-c4ccc(F)cc4)c32)ccc1Cl (stereo not drawn) [Example 61, 7-(4-chloro-3-methoxyphenyl)-2-[[(2-chloro-6-fluorophenyl)methyl]sulfanyl]-1-(4-fluorophenyl)-5-methyl-4,5,6,7-tetrahydro-1H-1,3-benzodiazole] | > 50 µM | 3.89 µM |
| COc1ccc(C2CCCc3nc(SCc4c(F)cc(C#N)cc4F)n(-c4ccc(F)cc4)c32)cc1OC (stereo not drawn) [Example 64, 4-(((7-(3,4-dimethoxyphenyl)-1-(4-fluorophenyl)-4,5,6,7-tetrahydro-1H-benzo[d]imidazol-2-yl)thio)methyl)-3,5-difluorobenzonitrile] | 5.34 µM | 0.15 µM |
| COc1ccc(C2CCCc3nc(SCc4c(F)cc(C(=O)O)cc4F)n(-c4ccc(F)cc4)c32)cc1OC (stereo not drawn) [Example 65, 4-(((7-(3,4-dimethoxyphenyl)-1-(4-fluorophenyl)-4,5,6,7-tetrahydro-1H-benzo[d]imidazol-2-yl)thi)methyl)-3,5-difluorobenzoic acid] | > 50 µM | 3.75 µM |
| COCCOCCOCCOCCNC(=O)c1cc(F)c(CSc2nc3c(n2-c2ccc(F)cc2)C(c2ccc(OC)c(OC)c2)CCC3)c(F)c1 (stereo not drawn) [Example 66, 4-(((7-(3,4-dimethoxyphenyl)-1-(4-fluorophenyl)-4,5,6,7-tetrahydro-1H-benzo[d]imidazol-2-yl)thio)methyl)-3,5-difluoro-N-(2,5,8,11-tetraoxatridecan-13-yl)benzamide] | 2.4 µM | 0.9 µM |
| COc1ccc(C2CCCc3nc(SCc4c(F)cc(OCCCl)cc4F)n(-c4ccc(F)cc4)c32)cc1OC (stereo not drawn) [Example 67, 2-((4-(2-chloroethoxy)-2,6-difluorobenzyl)thio)-7-(3,4-dimethoxyphenyl)-1-(4-fluorophenyl)-4,5,6,7-tetrahydro-1H-benzo[d]imidazole] | 8.34 µM | 0.5 µM |
| COCCOCCOCCOCCNC(=O)c1cc(F)c(CSc2nc3c(n2-c2ccc(F)cc2)C(c2cc(OC)c(OC)cc2Br)CCC3)c(F)c1 (stereo not drawn) [Example 68a, 4-(((7-(2-bromo-4,5-dimethoxyphenyl)-1-(4-fluorophenyl)-4,5,6,7-tetrahydro-1H-benzo[d]imidazol-2-yl)thio)methyl)-3,5-difluoro-N-(2,5,8,11-tetraoxatridecan-13-yl)benzamide] | 22 µM | 7.39 µM |
| COCCOCCOCCOCCNC(=O)c1cc(F)c(CSc2nc3c(n2-c2ccc(F)cc2)C(c2cc(OC)c(OC)c(Br)c2Br)CCC3)c(F)c1 (stereo not drawn) [Example 68b, 4-(((7-(2,3-dibromo-4,5-dimethoxyphenyl)-1-(4-fluorophenyl)-4,5,6,7-tetrahydro-1H-benzo[d]imidazol-2-yl)thio)methyl)-3,5-difluoro-N-(2,5,8,11-tetraoxatridecan-13-yl) benzamide] | > 50 µM | 28.6 µM |
| COc1ccc(C2CCCc3nc(SCc4c(F)cc(OCCN5CCCC5)cc4F)n(-c4ccc(F)cc4)c32)cc1OC (stereo not drawn) [Example 69, 2-((2,6-difluoro-4-(2-(pyrrolidin-1-yl)ethoxy)benzyl)thio)-7-(3,4-dimethoxyphenyl)-1-(4-fluorophenyl)-4,5,6,7-tetrahydro-1H-benzo[d]imidazole] | 7.97 µM | 0.85 µM |
| COc1cccc(C2CCCc3nc(SCc4c(F)cncc4F)n(-c4ccc(F)cc4)c32)c1 (stereo not drawn) [Example 71, 2-(((3,5-difluoropyridin-4-yl)methyl)thio)-1-(4-fluorophenyl)-7-(3-methoxyphenyl)-4,5,6,7-tetrahydro-1H-benzo[d]imidazole] | > 50 µM | 1.91 µM |
| COc1cccc(C2CCCc3nc(SCc4c(F)cncc4F)n(-c4ccc(F)c(OC)c4)c32)c1 (stereo not drawn) [Example 72, 2-(((3,5-difluoropyridin-4-yl)methyl)thio)-1-(4-fluoro-3-methoxyphen)-7-(3-methoxyphenyl)-4,5,6,7-tetrahydro-1H-benzo[d]imidazole] | 35.2 µM | 0.91 µM |
| COc1cc(C2CCCc3nc(SCc4c(F)cc(C#N)cc4F)n(-c4ccc(F)cc4)c32)ccc1F (stereo not drawn) [Example 73, 3,5-difluoro-4-(((7-(4-fluoro-3-methoxyphenyl)-1-(4-fluorophenyl)-4,5,6,7-tetrahydro-1H-benzo[d]imidazol-2-yl)thio)methyl)benzonitrile] | 47.5 µM | 1.53 µM |
| COc1cc(C2CCCc3nc(SCc4c(F)cc(C(=O)O)cc4F)n(-c4ccc(F)cc4)c32)ccc1F (stereo not drawn) [Example 74, 3,5-difluoro-4-(((7-(4-fluoro-3-methoxyphenyl)-1-(4-fluorophenyl)-4,5,6,7-tetrahydro-1H-benzo[d]imidazol-2-yl)thio)methyl)benzoic acid] | > 50 µM | 1.1 µM |
| COCCOCCOCCOCCNC(=O)c1cc(F)c(CSc2nc3c(n2-c2ccc(F)cc2)C(c2ccc(F)c(OC)c2)CCC3)c(F)c1 (stereo not drawn) [Example 75, 3,5-difluoro-4-(((7-(4-fluoro-3-methoxyphenyl)-1-(4-fluorophenyl)-4,5,6,7-tetrahydro-1H-benzo[d]imidazol-2-yl)thio)methyl)-N-(2,5,8,11-tetraoxatridecan-13-yl)benzamide] | > 50 µM | 2.76 µM |
| COc1cc(C2(C)CCCc3nc(SCc4c(F)cc(OCCN(C)C)cc4F)n(-c4ccc(F)cc4)c32)ccc1Cl (stereo not drawn) [Example 80, 2-(4-((7-(4-chloro-3-methoxyphenyl)-1-(4-fluorophenyl)-4,5,6,7-tetrahydro-7-methyl-1H-benzo[d]imidazol-2-ylthio)methyl)-3,5-difluorophenoxy)-N,N-dimethylethanamine] | 19.2 µM | 2.94 µM |
| COc1cc(C2(C)CCCc3nc(SCc4c(F)cc(C(=O)O)cc4F)n(-c4ccc(F)cc4)c32)ccc1Cl (stereo not drawn) [Example 81, 4-((7-(4-chloro-3-methoxyphenyl)-1-(4-fluorophenyl)-4,5,6,7-tetrahydro-7-methyl-1H-benzo[d]imidazol-2-ylthio)methyl)-3,5-difluorobenzoic acid trifluoroacetic acid] | > 50 µM | 1.75 µM |
| COC(=O)[C@H](CCCNC(=N)N)NC(=O)c1cc(F)c(CSc2nc3c(n2-c2ccc(F)cc2)C(C)(c2ccc(Cl)c(OC)c2)CCC3)c(F)c1 (stereo partly drawn) [Example 82, (S)-methyl 2-(4-((7-(4-chloro-3-methoxyphenyl)-1-(4-fluorophenyl)-4,5,6,7-tetrahydro-7-methyl-1H-benzo[d]imidazol-2-ylthio)methyl)-3,5-difluorobenzamido)-5-guanidinopentanoate trifluoroacetic acid] | 15.2 µM | 0.18 µM |
| COc1cc(C2(C)CCCc3nc(SCc4c(F)cc(C(=O)N[C@@H](CCCNC(=N)N)C(=O)O)cc4F)n(-c4ccc(F)cc4)c32)ccc1Cl (stereo partly drawn) [Example 83, (S)-2-(4-((7-(4-chloro-3-methoxyphenyl)-1-(4-fluorophenyl)-4,5,6,7-tetrahydro-7-methyl-1H-benzo[d]imidazol-2-ylthio)methyl)-3,5-difluorobenzamido)-5-guanidinopentanoic acid trifluoroacetic acid] | 17.2 µM | 0.13 µM |
